One experiment has as its target T1, Leucine aminopeptidase (Plasmodium falciparum 3D7, UniProt Q8IL11).
T1 sequence (Q8IL11 whole entry): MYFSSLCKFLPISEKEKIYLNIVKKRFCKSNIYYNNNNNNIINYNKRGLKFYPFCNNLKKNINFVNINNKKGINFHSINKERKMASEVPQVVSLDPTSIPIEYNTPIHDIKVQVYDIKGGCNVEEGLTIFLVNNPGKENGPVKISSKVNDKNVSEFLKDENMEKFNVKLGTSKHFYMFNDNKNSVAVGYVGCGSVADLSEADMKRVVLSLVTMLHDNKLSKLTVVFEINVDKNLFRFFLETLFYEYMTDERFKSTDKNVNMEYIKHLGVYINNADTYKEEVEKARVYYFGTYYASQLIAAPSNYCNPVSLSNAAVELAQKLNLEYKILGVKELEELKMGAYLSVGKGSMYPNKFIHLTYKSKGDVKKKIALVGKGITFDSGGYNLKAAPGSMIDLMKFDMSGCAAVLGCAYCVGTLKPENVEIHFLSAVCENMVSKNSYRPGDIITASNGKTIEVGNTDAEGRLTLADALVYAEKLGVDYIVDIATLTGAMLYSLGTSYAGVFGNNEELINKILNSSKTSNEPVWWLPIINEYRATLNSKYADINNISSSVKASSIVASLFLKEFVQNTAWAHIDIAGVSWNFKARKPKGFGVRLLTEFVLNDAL
The experiment in a line: P. falciparum M17LAP inhibitors, primary screen, biochemical, fluorogenic H-Leu-NHMec substrate, 1536-well (AID 1619). In kind it is functional.

Experiment [1] deals with Luciferin 4-monooxygenase (Photinus pyralis, UniProt P08659). Kind of experiment: Counter Screen for Luciferase-based Assay Positives. [Related pubchem assays: 620, 618, 411 ]. (The purpose of a counterscreen is to sort out artefacts and off-target activity.)
Luciferin 4-monooxygenase, sequence (P08659 whole entry): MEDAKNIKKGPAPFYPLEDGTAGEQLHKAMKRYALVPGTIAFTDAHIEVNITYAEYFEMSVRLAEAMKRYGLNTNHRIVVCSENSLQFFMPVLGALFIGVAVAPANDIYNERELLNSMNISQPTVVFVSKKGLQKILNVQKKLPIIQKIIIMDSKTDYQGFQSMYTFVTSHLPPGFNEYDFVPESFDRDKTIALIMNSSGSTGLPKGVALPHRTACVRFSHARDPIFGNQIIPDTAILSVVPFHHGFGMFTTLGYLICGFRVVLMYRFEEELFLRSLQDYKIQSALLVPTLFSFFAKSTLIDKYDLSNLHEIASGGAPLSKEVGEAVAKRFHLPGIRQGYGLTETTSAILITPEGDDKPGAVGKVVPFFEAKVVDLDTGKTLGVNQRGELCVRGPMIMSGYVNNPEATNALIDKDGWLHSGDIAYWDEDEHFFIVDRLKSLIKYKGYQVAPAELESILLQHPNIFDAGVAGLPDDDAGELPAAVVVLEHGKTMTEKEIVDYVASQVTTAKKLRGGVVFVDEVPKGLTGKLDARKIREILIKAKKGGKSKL
Experiment [2] concerns the target Glyceraldehyde-3-phosphate dehydrogenase (Homo sapiens, UniProt P04406).
The test system of a further experiment is HT-1080. Kind of experiment: cytotoxicity in HT1080 fibrosarcoma cells, cell-based, fluorescence readout (AID 620). The class given is functional. The note with it: Homo sapiens.
The test system of the next experiment is Jurkat. The experiment in a line: antigen receptor-induced NF-kB inhibitors, dose response, Jurkat, luciferase reporter, luminescence, B- and T-cell (AID 489004).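 Note: NF-kB luciferase reporter Jurkat cells stimulated with PMA plus ionomycin.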 In kind it is functional, cell-based. The note with it: Homo sapiens. On the technique in general: In a reporter assay the amount or activity of a reporter protein is the signal.
Experiment [3] deals with T2, Sentrin-specific protease 6 (Homo sapiens, UniProt Q9GZR1).
T2 sequence (Q9GZR1 whole entry): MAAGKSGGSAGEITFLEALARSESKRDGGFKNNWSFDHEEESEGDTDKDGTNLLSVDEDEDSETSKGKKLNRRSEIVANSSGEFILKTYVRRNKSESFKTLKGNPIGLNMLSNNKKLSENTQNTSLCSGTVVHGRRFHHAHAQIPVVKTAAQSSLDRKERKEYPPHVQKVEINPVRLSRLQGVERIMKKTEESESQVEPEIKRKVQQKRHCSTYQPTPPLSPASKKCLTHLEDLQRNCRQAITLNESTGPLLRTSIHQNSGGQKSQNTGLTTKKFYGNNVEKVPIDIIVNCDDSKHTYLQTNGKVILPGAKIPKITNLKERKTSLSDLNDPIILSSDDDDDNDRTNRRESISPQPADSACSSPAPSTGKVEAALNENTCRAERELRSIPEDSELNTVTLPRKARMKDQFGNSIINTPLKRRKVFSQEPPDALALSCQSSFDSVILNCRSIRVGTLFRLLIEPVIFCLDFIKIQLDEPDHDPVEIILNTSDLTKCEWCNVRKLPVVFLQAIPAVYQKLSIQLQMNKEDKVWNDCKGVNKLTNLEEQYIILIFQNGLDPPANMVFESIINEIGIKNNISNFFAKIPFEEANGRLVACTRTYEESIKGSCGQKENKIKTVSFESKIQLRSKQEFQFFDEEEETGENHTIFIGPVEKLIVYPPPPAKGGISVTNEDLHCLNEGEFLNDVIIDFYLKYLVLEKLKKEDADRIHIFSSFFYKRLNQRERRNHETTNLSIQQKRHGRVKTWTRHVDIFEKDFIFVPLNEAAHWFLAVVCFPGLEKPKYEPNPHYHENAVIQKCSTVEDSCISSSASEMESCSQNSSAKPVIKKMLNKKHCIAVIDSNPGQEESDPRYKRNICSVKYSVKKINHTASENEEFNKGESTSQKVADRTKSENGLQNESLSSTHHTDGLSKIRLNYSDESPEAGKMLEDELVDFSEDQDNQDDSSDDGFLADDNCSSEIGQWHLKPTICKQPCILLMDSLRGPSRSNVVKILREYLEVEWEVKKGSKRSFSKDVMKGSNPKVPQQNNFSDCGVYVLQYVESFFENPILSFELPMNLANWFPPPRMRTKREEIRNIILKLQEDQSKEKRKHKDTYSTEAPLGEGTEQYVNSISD
The class given is functional.

Experiment [4] deals with T3, Microphthalmia-associated transcription factor (Homo sapiens, UniProt O75030).
T3 sequence (O75030 whole entry): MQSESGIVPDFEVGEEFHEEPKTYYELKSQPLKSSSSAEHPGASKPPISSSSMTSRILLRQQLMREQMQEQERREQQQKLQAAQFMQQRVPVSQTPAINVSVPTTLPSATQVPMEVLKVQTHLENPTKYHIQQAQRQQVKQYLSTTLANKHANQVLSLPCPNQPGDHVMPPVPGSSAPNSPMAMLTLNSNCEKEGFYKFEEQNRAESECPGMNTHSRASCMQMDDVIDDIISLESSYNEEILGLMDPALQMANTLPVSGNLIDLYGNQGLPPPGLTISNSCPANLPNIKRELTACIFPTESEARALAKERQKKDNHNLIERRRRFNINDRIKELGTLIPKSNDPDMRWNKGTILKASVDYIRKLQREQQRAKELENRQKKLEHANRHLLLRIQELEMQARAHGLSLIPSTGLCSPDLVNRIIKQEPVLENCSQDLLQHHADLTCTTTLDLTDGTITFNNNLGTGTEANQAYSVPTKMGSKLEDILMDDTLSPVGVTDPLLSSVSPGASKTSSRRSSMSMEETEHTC
The experiment in a line: TRPM1 promoter luciferase signal decrease, dose response, MITF inhibitor project, cell-based, SK-MEL-5, cherry-picked, set 3 (AID 493073).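 Note: SK-MEL-5 melanoma cells with luciferase driven by the MITF target TRPM1 promoter.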 In kind it is functional.

The subject of a further experiment is A-375. Kind of experiment: MITF: Counter assay: A375 proliferation Measured in Cell-Based System Using Plate Reader - 2084-03_Inhibitor_Dose_DryPowder_Activity. [Related pubchem assays (depositor defined):AID488944]. In kind it is functional. Particulars: Homo sapiens.

As usually defined, the IC50 is the point on the concentration scale where inhibition reaches its midpoint. For orientation: EC50 means the midpoint of the concentration-response curve. Usually AC50 stands for the concentration giving half of the maximal activity seen.

The source made the active and inactive calls.

Glyceraldehyde-3-phosphate dehydrogenase, sequence (P04406 whole entry): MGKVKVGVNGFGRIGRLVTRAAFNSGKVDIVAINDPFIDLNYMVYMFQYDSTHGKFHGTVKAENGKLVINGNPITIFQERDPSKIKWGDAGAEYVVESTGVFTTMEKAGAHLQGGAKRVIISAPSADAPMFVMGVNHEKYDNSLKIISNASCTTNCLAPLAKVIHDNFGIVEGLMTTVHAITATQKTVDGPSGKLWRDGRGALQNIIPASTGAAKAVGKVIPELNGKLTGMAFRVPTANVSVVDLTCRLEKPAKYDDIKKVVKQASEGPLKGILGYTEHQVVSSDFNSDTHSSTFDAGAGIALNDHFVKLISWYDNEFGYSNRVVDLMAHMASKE

As to `N#Cc1c(NC(=O)CSc2nc[nH]n2)sc2c1CCCCC2`, the IC50 at Leucine aminopeptidase is < 1 µM (active); in experiment [2], > 100 µM (not active); in the experiment on Jurkat, < 0.16 µM (active); in experiment [3], 4 µM (active). Also, the EC50 in experiment [1] was 50.9 µM (active); in the experiment with HT-1080 it was > 50 µM (not active). For the same compound, the AC50 is 0.371 µM (active) in experiment [4] and > 35 µM (active) in the experiment on A-375.

The values above are taken from ChEMBL document CHEMBL1201862, “PubChem BioAssay data set” (2004).
